Measurements as given in patent publication US8697655B2, “Method of selecting polypeptide sequence, and metal oxide or silicon-containing compound binding peptide and use thereof” (Riken, priority 2010, dated 2014).

Test: Binding of P-EGFs to TiO2 plate, anti-EGF antibody chemiluminescence detection
Details: about 2.0 ng, 10 μl in TBS pH 7.5; washed 3 times with TBS-T; anti-human EGF antibody and HRP secondary
Experimental: Subsequently, in accordance with a scheme in the left in FIG. 4-2, various P-EGF solutions (about 2.0 ng, 10 μl in TBS, pH 7.5) were added on a TiO2 plate (a plate produced by vapor deposition of titanium on the surface of a glass plate with a diameter of 15 mm and a thickness of 0.6 mm (manufactured by Matsunami Glass Ind., Ltd.) (the vapor deposition step was requested to Osaka Vacuum Industrial Co., Ltd.) was used); and a washing operation (TBS-T buffer, pH 7.5) was repeated 3 times. And, after blocking with 0.1% BSA solution, an anti-human EGF antibody was added as a primary antibody. Furthermore, after the washing operation (TBS-T buffer, pH 7.5) was repeated 3 times, an anti-mouse IgG antibody HRP conjugate was added as a secondary antibody. At the end, using a luminescent phenomenon by a reaction between a chemiluminescence reagent and HRP as an index, the presence of protein immobilized on the TiO2 plate was detected. […]
First, in accordance with a scheme in the left in FIG. 7-1, various P-EGF solutions (about 2.0 ng, 10 μl in TBS, pH 7.5) were added on a TiO2 plate and a washing operation (TBS-T buffer, pH 7.5) was repeated 3 times. […] At the end, using a luminescent phenomenon by a reaction between a chemiluminescence reagent and HRP as an index, the presence of protein immobilized on the TiO2 plate was detected.

TiO2 plate binding (luminescent phenomenon of protein immobilized on the plate): did not exhibit TiO2 binding
Substance: EGF: EGF to which a peptide was not fused
